# Measurements reported in ChEMBL document CHEMBL1201862, “PubChem BioAssay data set” (2004).
# Active and inactive are the calls of the source.
# Legend:
# [1] = test system: Streptococcus; assay: GAS UMAA2166 growth inhibition – luminescence, BacTiterGlo, counter-screen for streptokinase expression inhibitor project, dose response (AID 1915); format: functional, organism-based;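 also: potency for reduction of bacterial viability or growth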
# [2] = target: T1, Sentrin-specific protease 6 (Homo sapiens, UniProt Q9GZR1); format: functional;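 also: Luminescence-based dose-response confirmatory assay of SENP6 inhibition, following up an ultra-high-throughput screen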
# T1 sequence (Q9GZR1 whole entry): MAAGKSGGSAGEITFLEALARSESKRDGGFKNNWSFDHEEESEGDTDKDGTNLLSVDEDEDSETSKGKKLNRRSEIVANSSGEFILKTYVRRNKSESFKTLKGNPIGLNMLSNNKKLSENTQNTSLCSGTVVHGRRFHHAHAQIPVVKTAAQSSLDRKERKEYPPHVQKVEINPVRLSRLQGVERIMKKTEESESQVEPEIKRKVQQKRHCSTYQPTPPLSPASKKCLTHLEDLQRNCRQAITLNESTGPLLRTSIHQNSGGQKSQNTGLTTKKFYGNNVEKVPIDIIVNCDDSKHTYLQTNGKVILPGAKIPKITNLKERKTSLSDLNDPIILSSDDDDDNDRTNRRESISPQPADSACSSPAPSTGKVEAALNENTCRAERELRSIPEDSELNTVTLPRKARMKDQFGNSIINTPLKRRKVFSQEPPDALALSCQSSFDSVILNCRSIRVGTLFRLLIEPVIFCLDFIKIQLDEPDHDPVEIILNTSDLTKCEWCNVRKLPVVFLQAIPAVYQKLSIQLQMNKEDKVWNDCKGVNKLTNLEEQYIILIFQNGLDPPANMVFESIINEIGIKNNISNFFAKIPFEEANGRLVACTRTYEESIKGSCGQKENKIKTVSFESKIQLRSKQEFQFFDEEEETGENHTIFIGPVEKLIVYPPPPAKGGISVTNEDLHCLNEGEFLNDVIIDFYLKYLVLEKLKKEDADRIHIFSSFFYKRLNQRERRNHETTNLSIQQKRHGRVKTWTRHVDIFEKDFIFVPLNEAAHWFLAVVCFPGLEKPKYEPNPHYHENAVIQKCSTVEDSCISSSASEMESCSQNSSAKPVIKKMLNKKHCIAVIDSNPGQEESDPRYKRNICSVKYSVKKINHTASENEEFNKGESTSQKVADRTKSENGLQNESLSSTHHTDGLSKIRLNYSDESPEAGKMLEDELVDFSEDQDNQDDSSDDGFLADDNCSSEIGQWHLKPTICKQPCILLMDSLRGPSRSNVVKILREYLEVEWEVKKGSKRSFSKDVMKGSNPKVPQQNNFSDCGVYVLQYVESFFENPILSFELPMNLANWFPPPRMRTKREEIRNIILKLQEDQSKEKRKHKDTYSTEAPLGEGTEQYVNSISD
# [3] = target: T2, COUP transcription factor 2 (Homo sapiens, UniProt P24468); assay: Luminescence-based cell-based high throughput dose response assay to identify inhibitors of COUP-TFII (NR2F2).; format: functional;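 also: HEK293 cells transiently cotransfected with COUP-TFII expression vector and reporter; luciferase reporter luminescence driven by COUP-TFII from the pX2-168 reporter plasmid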
# T2 sequence (P24468 whole entry): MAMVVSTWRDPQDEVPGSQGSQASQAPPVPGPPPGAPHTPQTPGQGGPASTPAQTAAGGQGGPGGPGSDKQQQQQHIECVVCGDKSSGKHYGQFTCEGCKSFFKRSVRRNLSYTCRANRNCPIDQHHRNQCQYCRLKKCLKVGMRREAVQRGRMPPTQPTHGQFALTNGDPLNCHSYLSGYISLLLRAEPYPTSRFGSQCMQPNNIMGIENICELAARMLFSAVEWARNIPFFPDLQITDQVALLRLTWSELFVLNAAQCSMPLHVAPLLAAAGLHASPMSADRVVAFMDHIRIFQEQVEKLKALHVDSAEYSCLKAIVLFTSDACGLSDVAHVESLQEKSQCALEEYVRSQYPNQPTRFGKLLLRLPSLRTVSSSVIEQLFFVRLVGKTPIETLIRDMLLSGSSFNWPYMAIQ
# [4] = reduction of Shn3 3'UTR-driven luciferase in osteoblasts – cell-based, Clone20 osteoblasts, firefly luciferase, cherry-picked, dose response (AID 624132); format: functional;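 also: firefly luciferase luminescence from reporter carrying the Shn3 3'UTR in osteoblasts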
# [5] = cells
# [6] = test system: Jurkat; assay: SAR Analysis of small molecule inhibitors of T-cell specific antigen receptor-induced NF-kB activation in a Jurkat cell line using a luminescence assay - Set 2. [Related pubchem assays (depositor defined):AID435003, AID435012, AID465]; format: functional, cell-based; details: Homo sapiens
# [7] = NIH-3T3 fibroblast cytotoxicity, dose response, cytotoxicity control, cell-based, fluorescence, Alamar Blue, secondary assay (AID 2327); format: functional;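 also: NIH-3T3 mouse fibroblasts cultured with fluconazole at 8 µg/mL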
# [8] = test system: BJ; assay: BJ-TERT-LT-ST fibroblast viability loss – cell-based, RAS-independent, luminescence, dose response (AID 1935); format: functional; details: Homo sapiens;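 also: BJ fibroblasts immortalized with TERT plus LT and ST oncogenes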
# [9] = target: ATP-dependent molecular chaperone HSP82 (Candida albicans (strain WO-1) (Yeast), UniProt C4YTQ8); assay: steroid-induced GRE reporter decrease in yeast – S. cerevisiae, luminescence, Hsp90 inhibitor project, dose response (AID 2400); format: functional, cell-based;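 also: beta-galactosidase luminescence from glucocorticoid response element reporter as proxy for Hsp90 function; inhibitor potency where signal loss means Hsp90 inhibition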
# [10] = target: Hexokinase HKDC1 (Homo sapiens, UniProt Q2TB90); assay: activation of HKDC1 glucose phosphorylation – biochemical, W721R variant, dose response (AID 504730); format: functional
# [11] = DRD fibroblast viability loss – cell-based, non-viral oncogenic, luminescence, dose response (AID 1934); format: functional; details: Homo sapiens
# [12] = non-specific 3'UTR reporter inhibition in Clone20-Shn3RL – cell-based, Renilla luciferase, cherry-picked, counter-screen for Shn3 inhibitor project, dose response (AID 624133); format: functional
# [13] = test system: HEK293; assay: EBV LMP1 TES2 canonical NF-kB signalling blockers – cell-based, HEK293, luciferase, cherry-pick, dose response (AID 588343); format: functional; details: Homo sapiens
# [14] = loss of viability in HepG2 cells – cell-based, CellTiter-Glo, cherry-picked, cytotoxicity control for Shn3 inhibitor project, dose response (AID 624134); format: functional
# Chain of Hexokinase HKDC1 (Q2TB90 whole entry): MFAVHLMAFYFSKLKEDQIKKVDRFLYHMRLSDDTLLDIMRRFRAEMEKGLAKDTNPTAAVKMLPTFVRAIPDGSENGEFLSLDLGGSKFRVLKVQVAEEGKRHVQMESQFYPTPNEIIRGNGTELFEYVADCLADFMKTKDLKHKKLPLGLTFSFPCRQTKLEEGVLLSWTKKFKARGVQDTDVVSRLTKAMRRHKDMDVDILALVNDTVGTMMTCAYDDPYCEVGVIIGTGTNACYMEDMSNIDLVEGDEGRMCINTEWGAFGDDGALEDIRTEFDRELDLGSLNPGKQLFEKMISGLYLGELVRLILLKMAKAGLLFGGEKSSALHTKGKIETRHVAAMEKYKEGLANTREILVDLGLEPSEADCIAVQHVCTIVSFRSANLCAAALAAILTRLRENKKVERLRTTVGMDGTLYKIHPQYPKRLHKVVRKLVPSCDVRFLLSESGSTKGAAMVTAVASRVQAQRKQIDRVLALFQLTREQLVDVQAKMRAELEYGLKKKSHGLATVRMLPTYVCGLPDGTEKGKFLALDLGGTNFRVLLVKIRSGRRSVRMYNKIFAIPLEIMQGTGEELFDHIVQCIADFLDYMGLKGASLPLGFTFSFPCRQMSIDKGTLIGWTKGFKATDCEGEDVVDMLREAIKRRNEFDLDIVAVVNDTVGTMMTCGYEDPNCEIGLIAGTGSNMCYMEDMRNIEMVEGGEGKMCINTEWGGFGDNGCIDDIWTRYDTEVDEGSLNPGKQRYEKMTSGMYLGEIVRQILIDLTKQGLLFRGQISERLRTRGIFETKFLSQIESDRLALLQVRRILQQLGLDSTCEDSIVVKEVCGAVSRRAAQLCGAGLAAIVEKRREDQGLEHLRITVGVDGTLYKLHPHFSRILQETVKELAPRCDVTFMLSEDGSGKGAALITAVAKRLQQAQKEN
# Chain of ATP-dependent molecular chaperone HSP82 (C4YTQ8 whole entry): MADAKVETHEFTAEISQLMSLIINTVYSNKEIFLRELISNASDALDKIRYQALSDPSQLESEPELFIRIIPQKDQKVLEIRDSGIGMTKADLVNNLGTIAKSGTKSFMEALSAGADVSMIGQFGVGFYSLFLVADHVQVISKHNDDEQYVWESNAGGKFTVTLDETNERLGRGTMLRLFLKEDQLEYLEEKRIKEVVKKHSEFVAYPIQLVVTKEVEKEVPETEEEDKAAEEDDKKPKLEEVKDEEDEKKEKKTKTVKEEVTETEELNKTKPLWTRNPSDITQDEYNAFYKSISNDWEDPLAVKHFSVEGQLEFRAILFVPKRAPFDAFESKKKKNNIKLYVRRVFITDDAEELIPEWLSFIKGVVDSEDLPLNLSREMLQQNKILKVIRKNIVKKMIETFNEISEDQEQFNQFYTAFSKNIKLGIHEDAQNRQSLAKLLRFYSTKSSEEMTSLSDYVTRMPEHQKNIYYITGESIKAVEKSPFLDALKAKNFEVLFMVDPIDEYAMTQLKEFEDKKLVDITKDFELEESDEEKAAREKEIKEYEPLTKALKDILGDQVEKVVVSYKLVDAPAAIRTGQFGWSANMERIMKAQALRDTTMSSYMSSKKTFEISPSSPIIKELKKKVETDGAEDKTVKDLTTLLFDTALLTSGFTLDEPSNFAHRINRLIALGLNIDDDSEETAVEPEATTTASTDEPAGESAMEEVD
Structure (SMILES),EC50 [1],IC50 [2],IC50 [3],AC50 [4],EC50 [5],IC50 [6],EC50 [7],EC50 [8],EC50 [9],EC50 [10],EC50 [11],AC50 [12],AC50 [13],AC50 [14]
CCOc1cccc(/C=N/NC(=S)Nc2ccccc2[N+](=O)[O-])c1O,4.18 µM (active),10.3 µM (active),5.05 µM (active),–,–,–,–,–,–,–,–,–,–,–
CCCCC(=O)NC(c1ccc(N(CC)CC)cc1)c1ccc2cccnc2c1O (centres undefined),–,–,–,1.12 µM (active),241 nM (active),3.12 µM (active),18.1 µM (inconclusive),1.79 µM (active),> 150 µM (inactive),13.3 µM (active),5.53 µM (active),635 nM (active),5.16 µM (active),1.2 µM (active)
